Columns and labels:
[1] = system: normal FN1 cells; test: Mitochondrial membrane electrical potential (ΔΨm) by flow cytometry; format: cell-based, human; settings: 24 h, IsCT-P and AC-AFPK-IsCT1 at IC50, others 100 µM, MitoRed, compared to control cells, mean ± SD of three independent experiments
Protocol: Figure 4 Analysis of mitochondrial electrical potential (ΔΨm) using flow cytometry following a 24 h treatment with synthetic analogs of IsCT1 peptides. The indicated cells were treated at the IC50 values obtained for the IsCT-P and AC-AFPK-IsCT1 peptides and at a concentration of 100 µM for the other peptides. (a) Representative histograms of cell distribution according to ΔΨm; (b) bar graph showing ΔΨm expressed as the mean ± SD of three independent experiments of SCC-9 tumor cells; (c) bar graph showing ΔΨm expressed as the mean ± SD of three independent experiments of SCC-25 tumor cells; (d) bar graph showing ΔΨm expressed as the mean ± SD of three independent experiments of normal FN1 cells; (e) bar graph showing ΔΨm expressed as the mean ± SD of three independent experiments of normal J774 cells. Statistical differences were obtained using ANOVA and Tukey–Kramer multiple comparison tests. * p < 0.05, ** p < 0.01, and *** p < 0.001 denote significance. ns = not significant.
Tumor (SSC-9 and SSC-25) and normal cells (FN1 and J-774) were subjected to treatment for a period of 24 h at the peptides’ IC50 concentrations. After treatment, the cells were trypsinized, centrifuged at 1200 rpm for 5 min, the supernatant was discarded, and the cells were resuspended in complete medium containing MitoRed™ (Sigma-Aldrich, USA) (200 nM/L). […]

[2] = system: SCC-25 tumor cells; test: Cellular marker expression by flow cytometry; format: cell-based
Protocol: (§1) Figure 6 Analysis of marker expression in tongue squamous cell carcinoma tumor cells. The expression of markers was quantified using flow cytometry after 24 h of treatment with the AC-AFPK-IsCT1 peptide at its IC50 value determined for each cell line. (a) Representative density plots display the distribution of cells with fluorescence intensity; (b) marker expression in SCC-9 tumor cells; (c) marker expression in SCC-25 tumor cells. Bar graphs present protein expression levels as the mean ± SD from three independent experiments. Values are expressed as the mean ± SD from three independent experiments. Statistical differences were determined using ANOVA and Tukey–Kramer multiple comparison tests. * p < 0.05 and *** p < 0.001 denote significance. ns = not significant.
(§2) Tumor cells SSC-9 and SSC-25, both treated with the peptides at their IC50 concentrations for 24 h and control groups (10^5 cells/mL), were incubated at 4 °C for 1 h with 1 μg of specific antibodies conjugated with Alexa Fluor™ 488. Various markers associated with cell death and cell cycle progression, such as caspase 3 and 8, cyclin D1, PCNA, p53, and TNF-α conjugated with Alexa Fluor™ 488, were used as indicated. For intracellular markers, TritonX 0.1% was used for 30 min at room temperature before antibody labeling. Following centrifugation at 1500 rpm and washing with PBS, the supernatant was discarded and the pellet was resuspended in 200 μL of FACS buffer. The reading and analysis of receptor expression on the cell surface of tumor cells were carried out using a FACScanto flow cytometer (BD) with fluorescence intensity FL1-H for the number of events (10,000 events), and the dot plots were acquired and analyzed using FCS Express software.

[3] = system: SCC-9 tumor cells; test: Cellular marker expression by flow cytometry; format: cell-based
Protocol: as §1, §2

[4] = system: normal FN1 cells; test: CFSE-DA proliferation assay (flow cytometry); format: cell-based, human; settings: 24 h, IsCT-P and AC-AFPK-IsCT1 at IC50, other peptides at 100 µM, mean ± SD of three independent experiments
Protocol: Figure 2 Assessment of the cellular proliferative index was conducted using flow cytometry following a 24 h treatment with synthetic analogs of the IsCT1 peptide. The treatments were performed using the IC50 values obtained for the IsCT-P and AC-AFPK-IsCT1 peptides and at a concentration of 100 µM for the other peptides. (a) Representative histograms of the proliferative index were analyzed using WinMDI 5.0 software. Each color in the histogram represents a new cell population. (b) Bar graphs represent the mean ± SD of the proliferative index for SCC-9 tumor cells derived from three independent experiments. (c) Bar graphs display the mean ± SD of the proliferative index for SCC-25 tumor cells based on three independent experiments. (d) Bar graphs represent the mean ± SD of the proliferative index for normal FN1 cells from three independent experiments. […] Statistical differences were determined using ANOVA and Tukey–Kramer multiple comparison tests. […]
Tumor (SSC-9 and SSC-25) and normal cells (FN1 and J-774) were plated in 24-well plates at a density of 10^5 cells/mL for 24 h. […] Readings were performed on a FACScanto flow cytometer (BD, Franklin Lakes, NJ, USA) with the number of events set to 10,000 events, and histograms were acquired and analyzed using ModFit LT 5.0 software.

[5] = 24 h at IC50, compared to control cells, mean ± SD of three independent experiments
[6] = 24 h at IC50, mean ± SD of three independent experiments

## Ac-ALGKFWPKIKSLF-NH2 [AC-AFPK-IsCT1]
[1]
  decrease in ΔΨm: No changes
[2]; [5]
  decrease in Cyclin D1 expression: 15 ± 1.3%
  decrease in PCNA expression: 22.8 ± 2.5%
[2]; [6]
  increase in TNF-α-expressing cells: 85.6 ± 8.4%
  increase in caspase 3 expression: 86.2 ± 7%
  increase in caspase 8 expression: 82.3 ± 5.5%
  increase in p53-expressing cells: 83.5 ± 1.8%
[3]; 24 h at IC50
  change in Cyclin-D1 expression: No significant changes
[3]; [5]
  increase in caspase 3 expression: 67 ± 4.9%
  increase in caspase 8 expression: 61.6 ± 3%
  increase in cells expressing TNF-α: 69.2 ± 2.6%
  increase in cells expressing p53: 60.7 ± 1.6%
  reduction in PCNA expression: 21.4 ± 0.4%

## H-ILKKIWKPIKKLF-NH2 [IsCT-P]
[4]
  reduction in the proliferative index: 37.6 ± 3.9%
